Test results from patent US7169567B1, “Screening assay utilizing the PTH receptor” (The General Hospital Corporation, priority 1998, dated 2007).
“Also recorded” adds a separate entry of the source. Where no end group is shown, it is not given here.

Assays:
human PTH-1 receptor = biological target: T1, human PTH-1 receptor (Homo sapiens, UniProt Q03431); assay: cAMP-stimulating activity in HKRK-B7 cells (LLC-PK1 stably transfected with human PTH-1 receptor), RIA; type: cell-based; set-up: maximum cAMP response: dose or concentration left out as unconfirmed; details: for increase in intracellular cAMP levels relative to the basal cAMP level: 60 min at 22° C.
T1 construct: expressed in transfected cells; host or cells: HKRK-B7 (LLC-PK1 stably transfected, pCDNA-1-based plasmid)
T1 sequence (Q03431 27-593): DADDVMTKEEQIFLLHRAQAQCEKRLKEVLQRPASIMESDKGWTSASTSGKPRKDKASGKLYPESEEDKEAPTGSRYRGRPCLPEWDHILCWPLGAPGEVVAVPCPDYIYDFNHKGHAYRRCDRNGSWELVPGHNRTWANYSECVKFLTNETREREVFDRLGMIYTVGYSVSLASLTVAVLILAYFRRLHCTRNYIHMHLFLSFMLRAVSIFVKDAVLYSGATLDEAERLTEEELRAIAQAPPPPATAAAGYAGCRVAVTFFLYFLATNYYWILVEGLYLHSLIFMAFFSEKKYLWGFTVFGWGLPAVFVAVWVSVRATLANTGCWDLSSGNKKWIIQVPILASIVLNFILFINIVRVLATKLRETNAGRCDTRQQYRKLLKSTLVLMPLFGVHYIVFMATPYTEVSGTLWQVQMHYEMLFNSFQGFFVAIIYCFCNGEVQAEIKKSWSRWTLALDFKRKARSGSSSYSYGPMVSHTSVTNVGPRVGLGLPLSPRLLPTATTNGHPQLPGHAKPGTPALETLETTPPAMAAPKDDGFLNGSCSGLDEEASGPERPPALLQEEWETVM
Description: (§1) FIG. 2. cAMP-stimulating Activity of PTH Fragments in LLC-PK1 Cells. A) Rat PTH(1–34) analog or amino-terminal rPTH fragments were tested for cAMP-stimulating activity in an LLC-P1-derived cell line (HKRK-B7) stably transfected with the human PTH-1 receptor. Cells were treated with peptide at the indicated doses for 60 min at 22° C. Intracellular cAMP was measured by RIA, as described in Experimental Procedures. Shown are combined data (mean±s.e.m.) from 3 separate experiments, each performed in duplicate. B) HKRK-B7 cells, or untransfected LLC-PK1 were treated with rPTH(1–34) or rPTH(1–14), and intracellular cAMP was measured. Shown are data (mean±s.e.m.) from a single representative experiment performed in duplicate.
FIG. 3. Alanine-scan of PTH(1–14). HKRK-B7 cells were treated with 100 mM of one of 14 different rPTH(1–14) analogs, each having a different alanine-substitution at the indicated amino acid position. The resulting cAMP levels were determined as described in Experimental Procedures. Shown are the combined data (mean±s.e.m.) from three separate experiments, each performed in duplicate. The mean (mean±s.e.m.) basal cAMP levels observed in the three experiments was 2.1±0.1 pmole/well, and the maximum response to rPTH(1–34) at 0.1 mM was 254±16 pmole/well.
Cell Culture and DNA Transfection: COS-7 and HKRK-B7 cells were cultured at 37° C. in Dulbecco's modified Eagle's medium (DMEM) supplemented with fetal bovine serum (10%); penicillin G (20 units/ml), streptomycin sulfate (20 μg/ml) and amphotericin B (0.05 μg/ml) in a humidified atmosphere containing 5% CO2. Twenty-four to 16 hours prior to assay, cells in 24-well plates were shifted to a humidified incubator containing 5% CO2 that was set at 33° C. Stock solutions of EGTA/trypsin and antibiotics were from GIBCO; fetal bovine serum was from Hyclone Laboratories (Logan, Utah). Derivation and characterization of the HKRK-B7 cell line by stable transfection of LLC-PK1 cells with a pCDNA-1-based plasmid (In Vitrogen, San Diego, Calif.) encoding the hPTH-1 receptor was described previously (Takasu, H. and Bringhurst, F., Endocrinology, in press (1998)). These cells express PTH-1 receptors at a surface density of about 1×10^6 PTH-binding sites per cell. The HKRK-B7 cells were used for functional assays 24 to 72 hours after the cell monolayer reached confluency.
(§2) Intracellular cyclic AMP: Transfected COS-7 or HKRK-B7 cells were rinsed with 500 ml of binding buffer, (50 mM Tris-HCl, pH 7.7, 100 mM NaCl, 5 mM KCl, 2 mM CaC12, 5% heat-inactivated horse serum, 0.5% heat-inactivated fetal bovine serum) and 200 ml of IBMX buffer (DMEM containing 2 mM IBMX, 1 mg/ml bovine serum albumin, 35 mM Hepes-NaOH, pH 7.4) and […] of binding buffer or binding buffer containing various amounts of peptide were added. The plates were incubated for 60 minutes at room temperature. The buffer was then withdrawn and the cells were frozen on dry ice, treated with 0.5 ml of 50 mM HCl, and refrozen. After the thawing, the lysate was diluted 30-fold in dH20 and an aliquot was analyzed for cAMP content by determined radioimmunoassay using unlabeled cAMP as a standard.
Amino-terminal peptide fragments based on the rat PTH sequence and ranging in length from PTH(1–9) to PTH(1–15) were synthesized and tested for activity in an LLC-PK1-derived cell line called HKRK-B7 which stably expresses high levels (1×10^6 receptors/cell) of the cloned human PTH-1 receptor (Takasu, H. and Bringhurst, F., Endocrinology, in press (1998)).

[1] = tested on: parental LLC-PK1 cells (no PTH receptors, endogenous calcitonin receptors); assay: cAMP response in untransfected parental LLC-PK1 cells; type: cell-based; details: untransfected LLC-PK1 cells expressing calcitonin receptor but no PTH receptors
Description: as §1
as §2, with “The buffer was then withdrawn and the cells were frozen on dry ice, treated with 0.5 ml of 50 mM HCl, and refrozen.” left out, “standard. […]” for “standard.”

Row | Compound | EC50 (human PTH-1 receptor) | increase in intracellular cAMP levels relative to the basal cAMP level (human PTH-1 receptor; HKRK-B7 cells) | maximum cAMP response (human PTH-1 receptor; HKRK-B7 cells, mean±s.e.m. of three experiments, basal 2.1±0.1 pmole/well) | cAMP responsiveness of parental LLC-PK1 cells [1] | doses required for cAMP activation compared with the dose required for PTH(1–34) (human PTH-1 receptor; HKRK-B7 cells) | potency relative to PTH(1–34) with the intact receptor (human PTH-1 receptor; intact receptor)
1 | CCCC[C@H](NC(=O)[C@H](CCCNC(=N)N)NC(=O)[C@H](CCC(=O)O)NC(=O)[C@@H](NC(=O)[C@H](CO)NC(=O)[C@H](C)NC(=O)[C@H](CC(C)C)NC(=O)[C@H](Cc1c[nH]cn1)NC(=O)[C@H](CCCCN)NC(=O)CNC(=O)[C@H](CC(C)C)NC(=O)[C@H](CC(N)=O)NC(=O)[C@H](Cc1c[nH]cn1)NC(=O)[C@H](CCCC)NC(=O)[C@H](CC(C)C)NC(=O)[C@H](CCC(N)=O)NC(=O)[C@@H](NC(=O)[C@H](CCC(=O)O)NC(=O)[C@H](CO)NC(=O)[C@@H](NC(=O)[C@H](C)N)C(C)C)[C@@H](C)CC)C(C)C)C(=O)N[C@@H](CCC(N)=O)C(=O)N[C@@H](Cc1c[nH]c2ccccc12)C(=O)N[C@@H](CC(C)C)C(=O)N[C@@H](CCCNC(=N)N)C(=O)N[C@@H](CCCCN)C(=O)N[C@@H](CCCCN)C(=O)N[C@@H](CC(C)C)C(=O)N[C@@H](CCC(N)=O)C(=O)N[C@@H](CC(=O)O)C(=O)N[C@H](C(=O)N[C@@H](Cc1c[nH]cn1)C(=O)N[C@@H](CC(N)=O)C(=O)N[C@@H](Cc1ccc(O)cc1)C(N)=O)C(C)C [PTH(1–34), [Nle^8,21,Tyr^34]rPTH-(1–34)NH2] | ~2 nM | 50 fold | 254±16 pmole/well | unresponsive |  | 
2 | PTH(1–14): Amino-terminal peptide fragment based on the rat PTH sequence, residues 1–14, C-terminally amidated (AVSEIQLMHNLGKH-NH2) |  | about 20 fold |  | did not activate; also recorded: unresponsive | five to six orders of magnitude higher | about five orders of magnitude weaker
